In patent US8633251B2, “Derivatives of aminoalkanols, method of obtaining of aminoalkanols and their use” (Uniwersytet Jagiellonski, priority 2008, dated 2014):

Key:
neurotoxicity (rotarod) = assay: Neurotoxicity test (TOX), rotarod, mice; assay type: in vivo
Procedure: (§1) In order to define anticonvulsant activity, screening tests were performed, using animal models of seizures. […] Each substance (after dissolving in methylcellulose) was normally tested in doses 30, 100, and 300 mg/kg body weight (b.w.) (mice) or in 30 and 50 mg/kg b.w. (rats) in two possible routes of administration: intraperitoneal (i.p.) or oral (p.o.). Appropriate tests were performed 0.5 and 4 h after administration of the compound. […] (mice) the tests were also performed in doses 10 and 3 mg/kg b.w.
It is performed with use of rotarod test. The animal is placed on a plastic rod (1 inch in diameter), rotating 6 rpm. The rod is placed on a level discouraging the animal to jump off. […] Neurotoxicity is stated if the animal cannot stay on the rod for 1 min. in any of 3 trials. Normally the test is performed in dose 30 mg/kg b.w. in 4 mice (0.5 h) and in 2 mice (4 h), in the dose 100 mg/kg b.w. in 8 mice (0.5 h) and in 4 mice (4 h) and in the dose 300 mg/kg b.w. in 4 mice (0.5 h) and 2 mice (4 h).

[1] = system: maximal electroshock seizures; assay: Maximum Electroshock Seizure (MES) test, mice; assay type: in vivo; conditions: mice
Procedure: as §1
Maximum Electroshock Seizure (MES) test is an electric test, verifying activity towards generalized tonic-clonic seizures (grand mal epilepsy). […] Its procedure consists in administration to an animal a mentioned dose, and after 0.5 or 4 h attaching corneal electrodes (after anesthetic eye-drops: 0.5% tetracaine hydrochloride in 0.9% NaCl) and turning on electric current (60 Hz, 0.2 s, 50 mA (mice) or 150 mA (rats)). […] Normally, in the dose 30 mg/kg b.w. the test is done in 1 mouse after 0.5 or 4 h, in the dose 100 mg/kg b.w.—in 3 mice, and in the dose 300 mg/kg b.w.—in 1 mouse.

[2] = dose 100 mg/kg b.w., time 0.5 h
[3] = mice, dose 100 mg/kg b.w., time 0.5 h
[4] = mice, dose 300 mg/kg b.w., time 0.5 h
[5] = mice, dose 30 mg/kg b.w., 0.5 h
[6] = mice, dose 100 mg/kg b.w., 0.5 h
[7] = mice, dose 300 mg/kg b.w., 0.5 h

Compound	TOX, No. of animals exhibiting motor impairment/no. of used animals (neurotoxicity (rotarod); mouse, in vivo, 100 mg/kg)	TOX, No. of animals exhibiting motor impairment/no. of used animals (neurotoxicity (rotarod); mouse, in vivo, 300 mg/kg)	MES, No. of protected animals/No. of used animals [1, 2]	MES, No. of protected animals/No. of used animals ([1]; dose 100 mg/kg b.w., 0.5 h)	TOX, No. of animals exhibiting motor impairment/no. of used animals (neurotoxicity (rotarod); [6])	TOX, No. of animals exhibiting motor impairment/no. of used animals (neurotoxicity (rotarod); [7])	further results
Cc1cccc(C)c1OCCN(C)C(C)CO.Cl (racemic) [Compound 14, R,S-2N-[(2,6-dimethylphenoxy)ethyl]-2N-methylamino-1-propanol hydrochloride]	8/8	4/4	1/1				TOX, No. of animals exhibiting motor impairment/no. of used animals (neurotoxicity (rotarod); mouse, in vivo, 30 mg/kg): 1/4; MES, No. of protected animals/No. of used animals ([1]; dose 30 mg/kg b.w., time 0.5 h): 1/1
Cc1cccc(C)c1OCCN(C)CC(O)c1ccccc1.Cl (racemic) [Compound 22, R,S-2N-[(2,6-dimethylphenoxy)ethyl]-2N-methylamino-1-phenylethanol hydrochloride]			2/2				TOX, No. of animals exhibiting motor impairment/no. of used animals (neurotoxicity (rotarod); [3]): 8/8; TOX, No. of animals exhibiting motor impairment/no. of used animals (neurotoxicity (rotarod); [4]): 4/4; MES, No. of protected animals/No. of used animals ([1]; dose 100 mg/kg b.w., time 4 h): 2/2
Cc1cccc(OCCCNC(C)CO)c1C (racemic) [Compound 46, R,S-2N-[(2,3-dimethylphenoxy)propyl]amino-1-propanol]	8/8	4/4	3/3				
CCC(CO)NCCCOc1cccc(C)c1C (racemic) [Compound 48, R,S-2N-[(2,3-dimethylphenoxy)propyl]amino-1-butanol]	8/8	4/4	3/3				
Cc1cccc(OCCCNCC(O)c2ccccc2)c1C (racemic) [Compound 49, R,S-2N-[(2,3-dimethylphenoxy)propyl]amino-1-phenylethanol]							TOX, No. of animals exhibiting motor impairment/no. of used animals (neurotoxicity (rotarod); mice, dose 30 mg/kg b.w., time 0.5 h): 1/4; TOX, No. of animals exhibiting motor impairment/no. of used animals (neurotoxicity (rotarod); mice, dose 30 mg/kg b.w., time 4 h): 1/2; TOX, No. of animals exhibiting motor impairment/no. of used animals (neurotoxicity (rotarod); [3]): 6/8; TOX, No. of animals exhibiting motor impairment/no. of used animals (neurotoxicity (rotarod); mice, dose 100 mg/kg b.w., time 4 h): 3/4; TOX, No. of animals exhibiting motor impairment/no. of used animals (neurotoxicity (rotarod); [4]): 4/4; TOX, No. of animals exhibiting motor impairment/no. of used animals (neurotoxicity (rotarod); mice, dose 300 mg/kg b.w., time 4 h): 2/2; MES, No. of protected animals/No. of used animals ([1]; dose 300 mg/kg b.w., time 0.5 h): 1/1
Cc1cccc(C)c1OCCCNCC(C)O (racemic) [Compound 50, R,S-1N-[(2,6-dimethylphenoxy)propyl]amino-2-propanol]		4/4	3/3				TOX, No. of animals exhibiting motor impairment/no. of used animals (neurotoxicity (rotarod); mouse, in vivo, 30 mg/kg): 3/4; MES, No. of protected animals/No. of used animals ([1]; dose 30 mg/kg b.w., time 0.5 h): 1/1
Cc1cccc(C)c1OCCCNC(C)CO (racemic) [Compound 51, R,S-2N-[(2,6-dimethylphenoxy)propyl]amino-1-propanol]		4/4		3/3			TOX, No. of animals exhibiting motor impairment/no. of used animals (neurotoxicity (rotarod); mouse, in vivo, 30 mg/kg): 2/4; MES, No. of protected animals/No. of used animals ([1]; dose 30 mg/kg b.w., 0.5 h): 1/1
CCC(CO)NCCCOc1c(C)cccc1C.Cl (racemic) [Compound 55, R,S-2N-[(2,6-dimethylphenoxy)propyl]amino-1-butanol hydrochloride]	8/8	4/4		3/3			MES, No. of protected animals/No. of used animals ([1]; dose 30 mg/kg b.w., 0.5 h): 1/1
Cc1cccc(C)c1OCCCNCC(O)c1ccccc1 (racemic) [Compound 56, R,S-2N-[(2,6-dimethylphenoxy)propyl]amino-1-phenylethanol]				1/1	8/8	4/4	TOX, No. of animals exhibiting motor impairment/no. of used animals (neurotoxicity (rotarod); [5]): 2/4
Cc1cccc(Cl)c1OCCCNC(C)CO (racemic) [Compound 57, R,S-2N-[(2-chlor-6-methylphenoxy)propyl]amino-1-propanol]					8/8	4/4	TOX, No. of animals exhibiting motor impairment/no. of used animals (neurotoxicity (rotarod); [5]): 4/4; TOX, No. of animals exhibiting motor impairment/no. of used animals (neurotoxicity (rotarod); mice, dose 30 mg/kg b.w., 4 h): 1/2
CCC(CO)NCCCOc1c(C)cccc1Cl.Cl (racemic) [Compound 58, R,S-2N-[(2-chlor-6-methylphenoxy)propyl]amino-1-butanol hydrochloride]				2/3	6/8	4/4	TOX, No. of animals exhibiting motor impairment/no. of used animals (neurotoxicity (rotarod); mice, dose 300 mg/kg b.w., 4 h): 1/1
CNC(=O)C(C)NC(=O)COc1c(C)cccc1C (racemic) [Compound 67, D,L-2N-[(2,6-dimethylphenoxy)acetyl]aminopropionic acid N-methylamide]					1/8	4/4	responders at 100 mg/kg ([1]; Mus musculus, dose 100 mg/kg b.w., 0.5 h, read-out: MES, No. of protected animals/No. of used animals (converted)): 66.7%; responders at 300 mg/kg ([1]; Mus musculus, dose 300 mg/kg b.w., 0.5 h, read-out: MES, No. of protected animals/No. of used animals): 100%
